Measured values published in patent US12414952B2 (Merck Sharp & Dohme LLC, priority 2018, dated 2025).

Columns and labels:
[1] = target: T1, human A2a adenosine receptor (Homo sapiens (Human), UniProt P29274); assay: A2a binding affinity using an alternative radioligand binding assay, Method (C); conditions: Method (C): [3H]CGS21680, CHO.A2a membranes
Description: (§1) The A2a receptor affinity binding assay measured the amount of binding of a tritiated ligand with high affinity for the A2a adenosine receptor to membranes made from HEK293 or CHO cells recombinantly expressing the human A2a adenosine receptor, in the presence of varying concentrations of a compound of the invention. The data were generated using either filtration binding or a homogenous scintillation proximity assay (SPA).
Method (C): Measurement of A2a Binding Affinity Using an Alternative Radioligand Binding Assay
Membranes used in this procedure were made by washing cell cultures twice with DPBS buffer (Dulbecco's phosphate buffered saline without calcium and magnesium, ThermoFisher Scientific, Cat. No. A1285601), and harvesting the cell cultures by mechanical scraping. The cells were collected by centrifugation and re-suspended in 10 mM HEPES, pH 7.4 containing 0.1 mM benzamidine (Sigma, Cat. No. B6506) and 0.1 mM PMSF (phenylmethylsulfonyl fluoride, Sigma, Cat. No. 10837091001). Cells were freeze-thawed twice in a dry ice/ethanol bath and homogenized with 25 to 30 strokes in a glass dounce homogenizer (Wheaton, Cat. No. 357546). Membranes were pelleted at 40,000×g for 20 min at 4° C. and re-suspended in assay buffer (5 mM HEPES, pH 7.4, 5 mM MgCl2; supplemented with 0.1 mM benzamidine) at a protein concentration of 2.6 mg/mL. Protein concentration was determined by the Bio-Rad method (Bio-Rad, Cat. No. 5000002). Membranes were then incubated with adenosine deaminase (final concentration 2U/mL) for 20 min at 37° C. before use in the binding assay.
To perform the binding assay, 50 μg CHO.A2a membranes, 5 nM [^3H]CGS21680 (Perkin Elmer, Cat. No. NET1021), and 1 μL of test compound were combined in individual tubes to a volume of 100 μL. To define total and non-specific binding, wells containing 1% DMSO and 20 μM N-ethylcarboxamidoadenosine (Tocris Bioscience, Cat. No. 1691) respectively, were also included. The samples were incubated for 2 h at 37° C. The samples were filtered rapidly through a glass fiber filter using a cell harvester and washed with cold buffer (10 mM Tris, pH7.4, 5 mM MgCl2). The filter was allowed to dry and individual filters were placed into vials together with liquid scintillant and subjected to scintillation counting. After normalization to total and non-specific binding, the percent effect at each compound concentration was calculated. The plot of percent effect versus the log of compound concentration was analyzed electronically using a 4-parameter logistic fit based on the Levenberg-Marquardt algorithm to generate IC50 values.

[2] = target: T1, human A2a adenosine receptor; assay: A2a receptor affinity binding assay, method not indicated; conditions: method letter not given
Description: Method (A) describes the procedure used to measure A2a binding affinity using radioligand binding. Method (B) describes the procedure used to measure A2a binding affinity using SPA technology. Method (C) describes an alternative procedure used to measure A2a binding affinity using radioligand binding. The method used to measure A2b binding affinity is also described below. The method used to determine the A2a IC50 value reported for each compound in the table is indicated next to the reported value. The A2b IC50 value measured using the A2b binding affinity assay is shown in the table next to the compound under the corresponding A2a value.
as §1

T1 sequence (P29274 whole entry): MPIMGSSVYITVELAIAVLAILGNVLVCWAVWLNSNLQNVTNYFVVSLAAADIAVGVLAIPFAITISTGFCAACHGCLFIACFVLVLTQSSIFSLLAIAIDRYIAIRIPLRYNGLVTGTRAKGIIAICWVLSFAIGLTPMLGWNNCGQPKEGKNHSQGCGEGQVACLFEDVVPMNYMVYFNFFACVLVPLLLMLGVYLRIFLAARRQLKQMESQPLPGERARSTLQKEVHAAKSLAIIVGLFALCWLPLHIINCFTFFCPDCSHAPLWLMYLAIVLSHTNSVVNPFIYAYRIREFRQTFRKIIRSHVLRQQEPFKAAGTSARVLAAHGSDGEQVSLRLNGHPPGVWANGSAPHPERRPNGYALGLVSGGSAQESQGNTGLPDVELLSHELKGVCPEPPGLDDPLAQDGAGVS

SMILES	IC50 [1] [nM]	IC50 [2] [nM]
Nc1nc(-c2ccccc2)cc2nc(CCN3CC(F)(F)C3)nn12 [Example 2.23]	150	
COc1ccccc1-c1cc2nc(CCN3CC(F)(F)C3)nn2c(N)n1 [Example 2.18]	668	
Cc1c(-c2ccc(F)cc2)nc(N)c2nc(CCN3CCn4c(cnc4C(C)C)C3)nn12 [Example 18.6, 6-(4-fluorophenyl)-2-(2-(3-isopropyl-5,6-dihydroimidazo[1,5-a]pyrazin-7(8H)-yl)ethyl)-5-methyl-[1,2,4] triazolo[1,5-a]pyrazin-8-amine]		346
COc1cccc(-c2cc3nc(CCN4CC(F)(F)C4)nn3c(N)n2)c1 [Example 2.19]	389	
Nc1nc(-c2ccccc2F)cc2nc(CCN3CC(F)(F)C3)nn12 [Example 2.20]	241	
Nc1nc(-c2cccc(F)c2)cc2nc(CCN3CC(F)(F)C3)nn12 [Example 2.21]	91.7	
Nc1nc(-c2ccc(F)cc2)cc2nc(CCN3CC(F)(F)C3)nn12 [Example 2.22]	275	
